According to patent publication US10857209B2, “Lysosomal acid lipase and PPAR gamma ligands as immune therapies for cancer treatment” (Indiana University Research and Technology Corporation, priority 2016, dated 2020):

T1: PPARγ (Mus musculus, UniProt P37238)
T1 construct: host or cells: lal-/- mice (lung)
T1 sequence (P37238 1-505): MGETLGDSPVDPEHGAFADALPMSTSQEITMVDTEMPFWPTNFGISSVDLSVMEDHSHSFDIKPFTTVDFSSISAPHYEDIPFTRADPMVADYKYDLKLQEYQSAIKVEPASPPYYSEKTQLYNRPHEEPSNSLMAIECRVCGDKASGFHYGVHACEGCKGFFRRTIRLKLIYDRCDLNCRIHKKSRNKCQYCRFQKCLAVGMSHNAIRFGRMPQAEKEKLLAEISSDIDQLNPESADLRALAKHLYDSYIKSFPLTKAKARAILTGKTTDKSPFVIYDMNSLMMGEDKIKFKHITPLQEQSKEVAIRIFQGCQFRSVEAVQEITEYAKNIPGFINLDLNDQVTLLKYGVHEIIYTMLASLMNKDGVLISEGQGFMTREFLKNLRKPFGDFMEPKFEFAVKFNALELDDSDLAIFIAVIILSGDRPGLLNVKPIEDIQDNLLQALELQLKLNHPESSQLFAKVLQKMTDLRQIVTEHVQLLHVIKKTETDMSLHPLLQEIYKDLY

B1: hLAL: human lysosomal acid lipase expressed from a doxycycline-controlled tissue-specific transgene in lal−/− mice; never administered as a protein (protein)
chain: GPKPVVFLQHGLLADSSNWVTNLANSSLGFILADAGFDVWMGNSRGNTWSRKHKTLSVSQDEFWAFSYDEMAKYDLPASINFILNKTGQEQVYYVGHSQGTTIGFIAFSQIPELAKRIKMFFALGPVASVAFCTSPMAKLGRLPDHLIKDLFGDKEFLPQSAFLKWLGTHVCTHVILKELCGNLCFLLCGFNERNLNMSRVDVYTTHSPAGTSVQNMLHWSQAVKFQKFQAFDWGSSAKNYFHYNQSYPPTYNVKDMLVPTAVWSGGHDWLADVYDVNILLTQITNLVFHESIPEWEHLDFIWGLDAPWRLYNKIINLMRKYQ
modifications: left off: small tags and cut ends
notes: human lysosomal acid lipase expressed from a doxycycline-controlled tissue-specific transgene in lal−/− mice; never administered as a protein

Legend:
PPARγ = target: T1, PPARγ; conditions: previously reported; cited from earlier work
mTOR pathway = assay: Flow cytometry of mTOR pathway in gated Ly6G+CD11b+ bone marrow cells; type: cell-based, mouse; conditions: 20 μmol/L, 2 hours
Description: (§1) For in vitro PPARγ ligand treatment, 9-HODE (Cayman Chemical Co., Ann Arbor, Mich., USA) was added into the culture medium of MDSCs to a final concentration of 20 μmol/L for 24 or 48 hours. For the study of the effect of PPARγ ligand on the mTOR signaling pathway, bone marrow cells were treated with 9-HODE (20 μmol/L) for 2 hours.
Single cells from the bone marrow of 5-month-old lal^+/+ and lal^−/− mice were prepared as described in Qu et al., Cancer Res. 2009; 69:7252-7261. After 20 μmol/L 9-HODE treatment for 2 hours, cells were harvested, and labeled with anti-Ly6G and CD11b cell surface antibody (eBioscience) at 4° C. for 15 minutes. Cells were then fixed and permeabilized using BD Cytofix/Cytoperm Fixation/Permeabilization Kit (BD Biosciences) according to the manufacturer's instructions, and incubated with Alexa Fluor 647-conjugated anti-mTOR antibody, Alexa Fluor 488-conjugated anti-S6 antibody, Alexa Fluor 488-conjugated anti-pS6 (Ser235/236) antibody, and rabbit anti-pmTOR (Ser2448) antibody (Cell Signaling Technology, Beverly, Mass., USA) at 4° C. overnight. For anti-pmTOR antibody staining, cells were incubated with Alexa Fluor 647-conjugated anti-rabbit IgG in the following day. Cells were washed and ready for flow cytometry analysis. Mean fluorescence intensities of the proteins in the gated Ly6G^+CD11b^+ area were analyzed. For flow cytometry analysis, ≥10,000 cells were acquired and scored using a LSRII machine (BD Biosciences). Data were processed using the CellQuest software program (BD Biosciences).

B16 melanoma cells = assay: Mouse tumor growth model, pre-treated MDSCs co-injected subcutaneously with B16 melanoma cells; type: in vivo
Description: as §1
The tumor growth and metastasis model were described in Zhao et al., Oncogene. 2015; 34:1938-48. MDSCs and B16 melanoma cells were collected separately. A pilot study was performed to determine the best ratio between MDSCs and B16 melanoma cells. To test the tumor growth potential, 6×10^5 pre-treated MDSCs and 2×10^5 B16 melanoma cells were mixed, centrifuged and re-suspended in 100 μL PBS, and then injected subcutaneously into the flank region of 3-month old recipient lal^+/+ mice. Tumor volume (length×width^2×π/6) was monitored every week for 4 weeks. To test the metastasis potential, 2×10^6 pre-treated MDSCs and 5×10^5 B16 melanoma cells were mixed and incubated at 37° C., 5% CO2 for 30 minutes. After the incubation, cells were centrifuged, re-suspended, and injected intravenously into 3-month old lal^+/+ mice. Two weeks after the injection, the mice were sacrificed and the lungs were inflated with 4% paraformaldehyde for examination of metastasis.

[1] = tested on: LLC or B16 melanoma cells; assay: In vitro BALF treatment of tumor cells (proliferation, wound healing); type: cell-based, mouse
Description: BALF was harvested by 1 mL PBS, and cells were removed by centrifugation. To determine the effect of BALF on tumor cell proliferation, B16 melanoma or LLC cells (5×10^3) were seeded into a well of 96-well plates in 100 μL DMEM supplemented with 10% FBS, and then treated with 100 μL BALF harvested from lal^+/+, lal^−/− or CCSP-Tg/KO triple mice. Seventy-two hours later, the number of B16 melanoma or LLC cells was counted.
To analyze the effects of BALF on tumor cell or EC migration, in vitro wound healing assays were performed. Briefly, tumor cells or ECs were seeded at a density of 1.5×10^5 cells/well into a 24-well plate and incubated overnight to form a confluent monolayer. Scratch was created by scraping the cell monolayer in a straight line with a p200 pipet tip. After washing 3 times with PBS, the medium was changed with 250 μL DMEM containing 10% FBS and 5 μg/mL mitomycin C (Sigma-Aldrich). Then 250 μL BALF from lal^+/+, lal^−/− or CCSP-Tg/KO triple mice were added to the well. Cells were kept on culture at 37° C., 5% CO2. Images were taken at 0 and 15 hours after creating the scratch. Migration was estimated by measuring the distances from one side of the scratch to the other side using Image Pro-Plus software (Media Cybernetics, Rockville, Md., USA).

Row | Molecule | lal−/− pulmonary inflammation and aberrant gene expression (PPARγ) | phosphorylation of S6 (MFI) (mTOR pathway; gated lal−/− Ly6G+CD11b+ cells) | phosphorylation of mTOR (MFI) (mTOR pathway; gated lal−/− Ly6G+CD11b+ cells) | overall levels of mTOR and S6 (mTOR pathway; lal−/− MDSCs) | tumor size vs ethanol-treated lal−/− Ly6G+ cells (B16 melanoma cells; C57BL/6 Ly6G+ cells into C57BL/6 mice, 7, 14 and 21 days post-injection) | tumor volume (B16 melanoma cells; lal−/− Ly6G+ cells pre-treated 20 μmol/L 24 hours, co-injected s.c. with B16 cells into lal+/+ FVB/N mice, one week after injection, ethanol control 77.6±16.4) [mm^3] | tumor cell proliferation in vitro ([1]; LLC or B16 cells cultured 72 hours with BALF from doxycycline-treated CCSP-Tg/KO mice) | tumor cell migration in vitro ([1]; LLC or B16 cells, wound healing 15 hours, BALF from doxycycline-treated CCSP-Tg/KO mice, mitomycin C)
1 | 9-hydroxyoctadecadienoic acid [9-HODE] | significantly rescued | decreased phosphorylation of S6 | decreased phosphorylation of mTOR | reduced the overall levels of mTOR and S6 | significantly smaller | 36.3±12.4 | – | –
2 | B1 | – | – | – | – | – | – | reduced | reduced
